According to the supplement of paper PMC8671470:
± gives the standard deviation of the averaged measurements.

How the values were obtained:
Conditions in all cases: 72 h
[1] = test system: BV-173
Method in brief: (§1)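 Seeded in RPMI 1640 at densities within the linear growth range, fifteen myeloid leukaemia cell lines were dispensed into 384-well plates with acoustically pre-printed compounds spanning five tenfold doses from 1 to 10,000 nM, in duplicate. The plates were kept for 72 h at 37 °C in 5% CO2 before luminescent ATP viability was measured and normalised to vehicle and to a positive control at 10 µM. Curves were fitted with a four-parameter log-logistic model. The IC50 was taken from those curves.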

[2] = test system: HEL
Method in brief: as §1

[3] = test system: HL-60
Method in brief: as §1

[4] = test system: K-562
Method in brief: as §1

[5] = test system: KCL-22
Method in brief: as §1

[6] = test system: KG-1
Method in brief: as §1

[7] = test system: KU-812
Method in brief: as §1

[8] = test system: LAMA-84
Method in brief: as §1

[9] = test system: ML-2
Method in brief: as §1

[10] = test system: MOLM-13
Method in brief: as §1

[11] = test system: MV4-11
Method in brief: as §1

[12] = test system: Mono-Mac-6
Method in brief: as §1

[13] = test system: NOMO-1
Method in brief: as §1

[14] = test system: SHI-1
Method in brief: as §1

[15] = test system: THP-1
Method in brief: as §1

[16] = test system: HL-60; assay: cell viability (% survival relative to DMSO control); higher = less cytotoxic
Method in brief: (§2)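 HL-60 cells grown in RPMI 1640 with 10% FBS were rescreened against the full library in 384-well plates, in duplicate, at five tenfold concentrations from 1 to 10,000 nM, alongside DMSO or 100 nM of one of three metabolic inhibitors for 72 h at 37 °C, 5% CO2. Reference wells contained DMSO or 10 μM proteasome inhibitor. Viability was read with CellTiter-Glo and normalised to these reference wells, and where reported, area under the curve was taken from four-parameter log-logistic fits in drc and PharmacoGx.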

[17] = test system: BV-173; assay: cell viability (% survival relative to DMSO control, bortezomib = 0%); higher = less cytotoxic
Method in brief: (§3)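 Fifteen myeloid leukaemia cell lines were exposed to compounds at 1, 10, 100, 1000 or 10000 nM in 384-well plates for 72 h at 37 °C and 5% CO2. Viability was read by CellTiter-Glo luminescence and normalised, with vehicle as 100% and a 10 µM positive control as 0%. Values are percent survival averaged over duplicates.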

[18] = test system: HEL; assay: as above
Method in brief: as §3

[19] = test system: HL-60; assay: as above
Method in brief: as §3

[20] = test system: K-562; assay: as above
Method in brief: as §3

[21] = test system: KCL-22; assay: as above
Method in brief: as §3

[22] = test system: KG-1; assay: as above
Method in brief: as §3

[23] = test system: LAMA-84; assay: as above
Method in brief: as §3

[24] = test system: ML-2; assay: as above
Method in brief: as §3

[25] = test system: MOLM-13; assay: as above
Method in brief: as §3

[26] = test system: MV4-11; assay: as above
Method in brief: as §3

[27] = test system: SHI-1; assay: as above
Method in brief: as §3

[28] = test system: HL-60; assay: area under dose-response curve (viability, 1 nM-10 uM) (fraction (0-1)); higher = more sensitive
Method in brief: as §2

CC(C)(F)C[C@H](N[C@@H](c1ccc(-c2ccc(S(C)(=O)=O)cc2)cc1)C(F)(F)F)C(=O)NC1(C#N)CC1 [Odanacatib]
Conditions | IC50 (cell viability) [nM]
[1] | > 10000
[2] | > 10000
[3] | > 10000
[4] | > 10000
[5] | > 10000
[6] | > 10000
[7] | > 10000
[8] | > 10000
[9] | > 10000
[10] | > 10000
[11] | > 10000
[12] | > 10000
[13] | > 10000
[14] | > 10000
[15] | > 10000

cell viability [%], [16]
Conditions | 0.001 µM | 0.01 µM | 0.1 µM | 1 µM | 10 µM
co-treatment: AZD3965 100 nM | 99.32 ± 0.47 | 95.1 ± 11 | 102 ± 1.2 | 96.26 ± 0.29 | 101 ± 3.8
co-treatment: DMSO vehicle | 95.8 ± 6.7 | 98.4 ± 1.8 | 100 ± 1.1 | 95 ± 8.3 | 97.6 ± 0.99
co-treatment: GSK2194069 100 nM | 80.8 ± 23 | 89.4 ± 3.8 | 97.1 ± 2.8 | 90 ± 7.7 | 89.3 ± 6
co-treatment: pictilisib 100 nM | 66.7 ± 44 | 112 ± 12 | 94.9 ± 22 | 96.43 ± 0.2 | 90 ± 15

Conditions | area under dose-response curve, co-treatment: AZD3965 100 nM | area under dose-response curve, co-treatment: DMSO vehicle | area under dose-response curve, co-treatment: GSK2194069 100 nM | area under dose-response curve, co-treatment: pictilisib 100 nM | cell viability, 1 nM [%] | cell viability, 10 nM [%] | cell viability, 100 nM [%] | cell viability, 1000 nM [%] | cell viability, 10000 nM [%]
[17] | – | – | – | – | 85.1 | 104 | 101 | 88.7 | 106
[18] | – | – | – | – | 104 | 107 | 99.9 | 92.7 | 107
[19] | – | – | – | – | 143 | 105 | 114 | 118 | 83.3
[20] | – | – | – | – | 101 | 106 | 104 | 91.8 | 103
[21] | – | – | – | – | 128 | 96.9 | 104 | 93.7 | 122
[22] | – | – | – | – | 103 | 99.6 | 95.6 | 107 | 103
[23] | – | – | – | – | 104 | 103 | 106 | 89 | 102
[24] | – | – | – | – | 107 | 101 | 96.5 | 100 | 101
[25] | – | – | – | – | 128 | 99.5 | 108 | 96.4 | 117
[26] | – | – | – | – | 109 | 105 | 111 | 97.9 | 112
[27] | – | – | – | – | 109 | 107 | 99.9 | 98.5 | 117
[28] | < 0.0301 | < 0.0301 | < 0.0301 | < 0.0301 | – | – | – | – | –

Nc1nc(O)c2c(CCc3ccc(C(=O)N[C@@H](CCC(=O)O)C(=O)O)cc3)c[nH]c2n1 [Pemetrexed]
Conditions | IC50 (cell viability) [nM]
[1] | 381
[2] | 116
[3] | 617
[4] | 1660
[5] | 279
[6] | > 10000
[7] | 239
[8] | 58.5
[9] | 336
[10] | 305
[11] | 425
[12] | 312
[13] | 1370
[14] | 2320
[15] | 7020

cell viability [%], [16]
Conditions | 0.001 µM | 0.01 µM | 0.1 µM | 1 µM | 10 µM
co-treatment: AZD3965 100 nM | 91.8 ± 7 | 98.6 ± 2.1 | 107 ± 3.3 | 41.5 ± 2 | 28 ± 7.5
co-treatment: DMSO vehicle | 102 ± 3.2 | 100.6 ± 0.94 | 112 ± 4.9 | 43.8 ± 6.4 | 36.8 ± 1.9
co-treatment: GSK2194069 100 nM | 71.6 ± 6.5 | 95.7 ± 5.5 | 122 ± 25 | 40.1 ± 12 | 32.2 ± 2.7
co-treatment: pictilisib 100 nM | 74.2 ± 33 | 100.6 ± 0.34 | 121 ± 20 | 47.2 ± 3.1 | 32.2 ± 1.7

Conditions | area under dose-response curve, co-treatment: AZD3965 100 nM | area under dose-response curve, co-treatment: DMSO vehicle | area under dose-response curve, co-treatment: GSK2194069 100 nM | area under dose-response curve, co-treatment: pictilisib 100 nM | cell viability, 1 nM [%] | cell viability, 10 nM [%] | cell viability, 100 nM [%] | cell viability, 1000 nM [%] | cell viability, 10000 nM [%]
[17] | – | – | – | – | 89.2 | 91.9 | 104 | 4.73 | 1.8
[18] | – | – | – | – | 104 | 90.7 | 57.8 | 11.6 | 7.51
[19] | – | – | – | – | 110 | 99.6 | 113 | 31.5 | 9.36
[20] | – | – | – | – | 95.8 | 104 | 92.3 | 68.4 | 27.8
[21] | – | – | – | – | 98.5 | 102 | 78.4 | 36.9 | 24.3
[22] | – | – | – | – | 92 | 93.5 | 91.6 | 108 | 102
[23] | – | – | – | – | 99 | 99.3 | 40 | 30.7 | 26
[24] | – | – | – | – | 102 | 101 | 96.3 | 14 | 10.5
[25] | – | – | – | – | 95.6 | 101 | 93.5 | 4.73 | 1.7
[26] | – | – | – | – | 98.7 | 94.2 | 106 | 13.4 | 5.7
[27] | – | – | – | – | 99.2 | 102 | 106 | 68 | 43.4
[28] | 0.24 | 0.233 | 0.236 | 0.223 | – | – | – | – | –

C=C1NC(=O)c2cc(CN(C)c3ccc(C(=O)N[C@@H](CCC(=O)O)C(=O)O)s3)ccc2N1 [Raltitrexed]
Conditions | IC50 (cell viability) [nM]
[1] | 52.4
[2] | 37.6
[3] | 422
[4] | 201
[5] | 69.8
[6] | > 10000
[7] | 56
[8] | 42.8
[9] | 122
[10] | 47.9
[11] | 91.9
[12] | 45.2
[13] | 82.9
[14] | 562
[15] | 193

cell viability [%], [16]
Conditions | 0.001 µM | 0.01 µM | 0.1 µM | 1 µM | 10 µM
co-treatment: AZD3965 100 nM | 99.38 ± 0.65 | 74.1 ± 32 | 76.3 ± 41 | 25.7 ± 1.2 | 24.2 ± 2.7
co-treatment: DMSO vehicle | 101 ± 4.5 | 88.5 ± 22 | 55.7 ± 5.9 | 31.6 ± 6.8 | 27.6 ± 0.44
co-treatment: GSK2194069 100 nM | 98.5 ± 9.8 | 79.7 ± 24 | 53.7 ± 6.4 | 30.6 ± 6.8 | 23.3 ± 6
co-treatment: pictilisib 100 nM | 101 ± 4.3 | 78.4 ± 35 | 51.8 ± 1.8 | 34.2 ± 6.4 | 26.11 ± 0.13

Conditions | area under dose-response curve, co-treatment: AZD3965 100 nM | area under dose-response curve, co-treatment: DMSO vehicle | area under dose-response curve, co-treatment: GSK2194069 100 nM | area under dose-response curve, co-treatment: pictilisib 100 nM | cell viability, 1 nM [%] | cell viability, 10 nM [%] | cell viability, 100 nM [%] | cell viability, 1000 nM [%] | cell viability, 10000 nM [%]
[17] | – | – | – | – | 95.6 | 163 | 8.17 | 1.32 | 3.9
[18] | – | – | – | – | 100 | 109 | 6.54 | 6.59 | 7.77
[19] | – | – | – | – | 108 | 127 | 116 | 6.78 | 6.89
[20] | – | – | – | – | 104 | 121 | 86.5 | 49.2 | 52.4
[21] | – | – | – | – | 103 | 107 | 45.4 | 21.2 | 22
[22] | – | – | – | – | 101 | 103 | 101 | 100 | 102
[23] | – | – | – | – | 97.1 | 108 | 27.7 | 22.4 | 26.6
[24] | – | – | – | – | 93.9 | 121 | 61.6 | 5.21 | 6.92
[25] | – | – | – | – | 118 | 145 | 5.74 | 1.25 | 1.81
[26] | – | – | – | – | 108 | 110 | 48.1 | 4.34 | 6.68
[27] | – | – | – | – | 106 | 118 | 99.8 | 38.4 | 43.3
[28] | 0.598 | 0.412 | 0.42 | 0.432 | – | – | – | – | –
